Test results published in article PMC6990646 (ACS Omega, 2020).
Converted amounts (≈) assume the structure as drawn. “And” between values parts separate entries of the source, which are not always exact repeats. Equal values may be shown once.

Legend:
[1] = system: HAdV7; assay: Plaque reduction assay against adenovirus 7; type: cell-based, human adenovirus type 7; conditions: nontoxic dose of compound
[2] = system: ED-43/SG-Feo (VYG) replicon of HCV genotype 4a; assay: Antiviral bioassay against ED-43/SG-Feo; type: cell-based; conditions: for mean % of reduction, HCVcc genotype 4: nontoxic dose of compound
[3] = system: HSV-1; conditions: for mean % of reduction, herpes simplex virus: nontoxic dose of compound; for IC50: herpes simplex virus, plaque reduction
[4] = system: CBV4; assay: Plaque reduction assay against coxsackievirus B4; type: cell-based; conditions: nontoxic dose of compound
[5] = system: HAV HM175; assay: Plaque reduction assay against HAV HM175; type: cell-based, hepatitis A virus HM 175; conditions: for mean % of reduction, hepatitis A virus HM 175: nontoxic dose of compound; for IC50: hepatitis A virus HM 175, plaque reduction
[6] = system: FRHK-4 cell line; assay: Cytotoxicity test on FRHK-4 cell line; type: cell-based; conditions: hepatitis A virus HM 175 columns; host cells FRHK4
[7] = system: Vero cell line; assay: Cytotoxicity test on Vero cell line; type: cell-based; conditions: herpes simplex virus table; host cells Vero
[8] = system: Huh 7.5 cell line; assay: Cytotoxicity test on Huh 7.5 cell line; type: cell-based; conditions: HCVcc genotype 4 columns; host cells Huh 7.5
[9] = system: ADV7; conditions: cited from earlier work

| SMILES | mean % of reduction, adenovirus type 7 [1] [%] | mean % of reduction, HCVcc genotype 4 [2] [%] | mean % of reduction, herpes simplex virus [3] | mean % of reduction, coxsackievirus B4 [4] [%] | mean % of reduction, hepatitis A virus HM 175 [5] [%] | CC50 [6] [µg/mL] | IC50 [5] [µg/mL] | CC50 [7] [µg/mL] | IC50 [3] [µg/mL] | IC50 ([2]; HCVcc genotype 4) [µg/mL] | CC50 [8] [µg/mL] | EC50 [9] [µg/mL] |
| --- | --- | --- | --- | --- | --- | --- | --- | --- | --- | --- | --- | --- |
| Cc1ccc(-c2nc(N)nc(N)c2-c2nc3ccccc3s2)cc1 [13b, 5-(Benzo[d]thiazol-2-yl)-6-p-tolylpyrimidine-2,4-diamine] | 10 ± 0.1 | 10 ± 0.2 | 10 ± 0.1% | 10 ± 0.1 | 10 ± 0.1 | – | – | – | – | – | – | – |
| Nc1nc(NS(=O)(=O)c2ccccc2)ncc1-c1nc2ccccc2s1 [5a, N-(4-Amino-5-(Benzo[d]thiazol-2-yl)pyrimidin-2-yl)benzenesulfonamide] | 20 ± 0.5 | 30 ± 0.8 | 20 ± 0.9% | – | – | 220 (≈ 574 µM) | 100 (≈ 261 µM) | – | – | – | – | – |
| Cc1ccc(S(=O)(=O)Nc2nc(N)c(-c3nc4ccccc4s3)c(-c3ccc(F)cc3)n2)cc1 [14g, N-(4-Amino-5-(benzo[d]thiazol-2-yl)-6-(4-fluorophenyl)pyrimidin-2-yl)-4-methylbenzenesulfonamide] | 40 ± 0.8 | 20 ± 0.7 | 80% and 80 ± 2.4% | – | – | 230 (≈ 468 µM) | 81 (≈ 165 µM) | 240 (≈ 488 µM) | 50 (≈ 102 µM) | – | – | – |
| Cc1ccc(-c2nc(NS(=O)(=O)c3ccccc3)nc(N)c2-c2nc3ccccc3s2)cc1 [14d, N-(4-Amino-5-(benzo[d]thiazol-2-yl)-6-p-tolylpyrimidin-2-yl)benzenesulfonamide] | 10 ± 0.1 | 10 ± 0.1 | 10 ± 0.1% | 30 ± 0.2 | 20 ± 0.2 | – | – | – | – | – | – | – |
| CSc1nc(NS(=O)(=O)c2ccc(C)cc2)nc(N)c1-c1nc2ccccc2s1 [17b, N-(4-Amino-5-(benzo[d]thiazol-2-yl)-6-(methylthio)pyrimidin-2-yl)-4-methylbenzenesulfonamide] | 10 ± 0.1 | 10 ± 0.1 | 10 ± 0.2% | 20 ± 0.2 | 10 ± 0.1 | – | – | – | – | – | – | – |
| Nc1nc(NS(=O)(=O)c2ccccc2)nc(-c2ccc(Cl)cc2)c1-c1nc2ccccc2s1 [14c, N-(4-Amino-5-(benzo[d]thiazol-2-yl)-6-(4-chlorophenyl)pyrimidin-2-yl)benzenesulfonamide] | 30 ± 0.6 | 30 ± 0.7 | 30 ± 0.8% | – | – | 230 (≈ 466 µM) | – | – | – | – | – | – |
| COc1ccc(-c2nc(NS(=O)(=O)c3ccc(C)cc3)nc(N)c2-c2nc3ccccc3s2)cc1 [14j, N-(4-Amino-5-(benzo[d]thiazol-2-yl)-6-(4-methoxyphenyl)pyrimidin-2-yl)-4-methylbenzenesulfonamide] | 10 ± 0.1 | 10 ± 0.3 | 10 ± 0.1% | 10 ± 0.1 | 10 ± 0.1 | – | – | – | – | – | – | – |
| O=C(CNc1nc(NS(=O)(=O)c2ccccc2)ncc1-c1nc2ccccc2s1)c1ccc(Cl)cc1 [9b, N-(5-(Benzo[d]thiazol-2-yl)-4-((2-(4-chlorophenyl)-2-oxoethyl)amino)pyrimidin-2-yl)benzenesulfonamide] | 40 ± 0.8 | 60 ± 1.2 | 70% and 70 ± 1.5% | – | – | 230 (≈ 429 µM) | 86 (≈ 160 µM) | 240 (≈ 448 µM) | 74 (≈ 138 µM) | 86 (≈ 160 µM) | 250 (≈ 466 µM) | – |
| COc1ccc(-c2nc(N)nc(N)c2-c2nc3ccccc3s2)cc1 [13c, 5-(Benzo[d]thiazol-2-yl)-6-(4-methoxyphenyl)pyrimidine-2,4-diamine] | 10 ± 0.2 | 10 ± 0.1 | 10 ± 0.3% | 10 ± 0.2 | 10 ± 0.1 | – | – | – | – | – | – | – |
| Cc1ccc(S(=O)(=O)Nc2ncc(-c3nc4ccccc4s3)c(N)n2)cc1 [5b, N-(4-Amino-5-(benzo[d]thiazol-2-yl)pyrimidin-2-yl)-4-methylbenzenesulfonamide] | 20 ± 0.3 | 20 ± 0.8 | 40 ± 1.4% | – | 40 ± 1.0 | – | – | – | – | – | – | – |
| Nc1nc2c(ncn2COCCO)c(=O)[nH]1 [acyclovir, Acyclovir, reference compound] | – | – | – | – | – | – | – | 28 (≈ 124 µM) | – | – | – | – |
| CC(=O)CNc1nc(NS(=O)(=O)c2ccccc2)ncc1-c1nc2ccccc2s1 [compound 7, N-(5-(Benzo[d]thiazol-2-yl)-4-((2-oxopropyl)amino)pyrimidin-2-yl)benzenesulfonamide] | 10 ± 0.2 | 10 ± 0.3 | 10 ± 0.5% | 13.3 ± 0.4 | 10 ± 0.2 | – | – | – | – | – | – | – |
| Cc1ccc(C(=O)CNc2nc(NS(=O)(=O)c3ccccc3)ncc2-c2nc3ccccc3s2)cc1 [9c, N-(5-(Benzo[d]thiazol-2-yl)-4-((2-(p-tolyl)-2-oxoethyl)amino)pyrimidin-2-yl)benzenesulfonamide] | 10 ± 0.2 | 10 ± 0.6 | 30 ± 1.0% | – | 40 ± 1.2 | – | – | – | – | – | – | – |
| CSc1nc(NS(=O)(=O)c2ccccc2)nc(N)c1-c1nc2ccccc2s1 [17a, N-(4-Amino-5-(benzo[d]thiazol-2-yl)-6-(methylthio)pyrimidin-2-yl)benzenesulfonamide] | 10 ± 0.2 | 10 ± 0.1 | 10 ± 0.3% | 10 ± 0.1 | 10 ± 0.2 | – | – | – | – | – | – | – |
| COc1ccc(-c2nc(NS(=O)(=O)c3ccccc3)nc(N)c2-c2nc3ccccc3s2)cc1 [14e, N-(4-Amino-5-(benzo[d]thiazol-2-yl)-6-(4-methoxyphenyl)pyrimidin-2-yl)benzenesulfonamide] | 10 ± 0.1 | 10 ± 0.3 | 16.7 ± 0.1% | 20 ± 0.2 | 13.3 ± 0.2 | – | – | – | – | – | – | – |
| Nc1nc(NS(=O)(=O)c2ccccc2)nc(-c2ccccc2)c1-c1nc2ccccc2s1 [14a, N-(4-Amino-5-(benzo[d]thiazol-2-yl)-6-phenylpyrimidin-2-yl)benzenesulfonamide] | 10 ± 0.2 | 10 ± 0.1 | 10 ± 0.2% | 10 ± 0.1 | 10 ± 0.1 | – | – | – | – | – | – | – |
| Cc1ccc(S(=O)(=O)Nc2nc(N)c(-c3nc4ccccc4s3)c(-c3ccc(Cl)cc3)n2)cc1 [14h, N-(4-Amino-5-(benzo[d]thiazol-2-yl)-6-(4-chlorophenyl)pyrimidin-2-yl)-4-methylbenzenesulfonamide] | 40 ± 0.7 | 20 ± 0.5 | 70% and 70 ± 2.0% | – | – | 200 (≈ 394 µM) | 74 (≈ 146 µM) | 230 (≈ 453 µM) | 71 (≈ 140 µM) | – | – | – |
| Nc1nc(NS(=O)(=O)c2ccccc2)nc(-c2ccc(F)cc2)c1-c1nc2ccccc2s1 [14b, N-(4-Amino-5-(benzo[d]thiazol-2-yl)-6-(4-fluorophenyl)pyrimidin-2-yl)benzenesulfonamide] | 30 ± 0.5 | 10 ± 0.6 | 70 ± 1.3% | – | – | 220 (≈ 461 µM) | – | 250 (≈ 524 µM) | 66 (≈ 138 µM) | – | – | – |
| Cc1ccc(-c2nc(NS(=O)(=O)c3ccc(C)cc3)nc(N)c2-c2nc3ccccc3s2)cc1 [14i, N-(4-Amino-5-(benzo[d]thiazol-2-yl)-6-p-tolylpyrimidin-2-yl)-4-methylbenzenesulfonamide] | 10 ± 0.1 | 10 ± 0.2 | 10 ± 0.1% | 10 ± 0.1 | 10 ± 0.2 | – | – | – | – | – | – | – |
| NC(=O)c1ncn([C@@H]2O[C@H](CO)[C@@H](O)[C@H]2O)n1 [ribavirin] | – | – | – | – | – | – | – | – | – | – | – | 27.8 (≈ 114 µM) |
| Cc1ccc(S(=O)(=O)Nc2nc(N)c(-c3nc4ccccc4s3)c(-c3ccccc3)n2)cc1 [14f, N-(4-Amino-5-(benzo[d]thiazol-2-yl)-6-phenylpyrimidin-2-yl)-4-methylbenzenesulfonamide] | 10 ± 0.2 | 10 ± 0.1 | 10 ± 0.1% | 10 ± 0.2 | 10 ± 0.1 | – | – | – | – | – | – | – |
